One series concerns mouse hepatocytes. The series can be described thus: Hepatocyte stability assay, mouse. It is filed as in vitro ADME. Particulars: 10 μM compound. Put shortly: (§1)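 Cryopreserved hepatocytes (viability >70%) at 0.5×10^6 cells/mL in Leibovitz buffer, compound 10 μM (0.1% DMSO) at 37° C. Samples at 0, 5, 10, 20, 40, 60 min quenched in acetonitrile and analysed by LC-MS/MS, with buffer-only incubations as control. Half-life and Clint (μL min^−1 10^−6 cells) from ln % remaining versus time.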

Series [1] in a line: Hepatocyte stability assay, mouse. It is filed as in vitro ADME. The following applies: mouse, cryopreserved hepatocytes, 10 μM compound, read-out: T½. In a few lines: as §1
The nature of series [2]: Hepatocyte stability assay, human. The following applies: human, cryopreserved hepatocytes, 10 μM compound, read-out: T½. It is filed as in vitro ADME. In a few lines:
as §1

The test system of the next series is human hepatocytes. The series can be described thus: Hepatocyte stability assay, human. The following applies: 10 μM compound. In kind it is in vitro ADME. In a few lines: as §1
In series [3] the test system is IL-6 cytokine output from THP-1s. The series can be described thus: THP-1 AlphaLISA IL-6 cytokine assay. It is filed as cell-based. Particulars: Homo sapiens, THP-1, differentiated THP-1 cells, LPS then nigericin; Table 1. In a few lines: (§2)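 PMA-differentiated THP-1 cells (72 h) pre-incubated with compound for 30 min, LPS-stimulated for 24 h, then nigericin for 1 h, all at 37° C. IL-1β and IL-6 in supernatants measured by AlphaLISA. IC50 from concentration-response of % inhibition normalized to ±LPS controls.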

The test system of series [4] is NRF2 (nuclear factor erythroid 2-related factor 2). The series can be described thus: NRF2 +/-GSH activation assay (DiscoverX PathHunter NRF2 translocation kit, U2OS cells). It is filed as cell-based. Particulars: for Emax (%) +GSH / Emax (%) −GSH: normalised to dimethyl fumarate high control.
The test system of series [5] is IL-1β cytokine output from THP-1s. The series can be described thus: THP-1 AlphaLISA IL-1β cytokine assay. It is filed as cell-based. Particulars: Homo sapiens, THP-1, differentiated THP-1 cells, LPS then nigericin; Table 1. Put shortly: as §2
In general terms: Alpha assays give light when donor and acceptor beads are brought close together.

We go through five compounds from patent US12678419B2, “Compounds” (Sitryx Therapeutics Limited, priority 2020, dated 2026).

Each structure is given as a SMILES string. “And” between values parts separate entries of the source, which are not always exact repeats. Identical values can stand only once.

As to `C=C(CC(=O)OC1(C)Cc2cc(Cl)c(Cl)cc2C1)C(=O)OCC(=O)O` [Example 21, 2-((4-((5,6-dichloro-2-methyl-2,3-dihydro-1H-inden-2-yl)oxy)-2-methylene-4-oxobutanoyl)oxy)acetic acid], the entries for the “Clint (μL min^−1 10^−6 cells)” value in the series on mouse hepatocytes and in the series with human hepatocytes were 483 μL min^−1 10^−6 cells and 37 μL min^−1 10^−6 cells, respectively. Further, the half-life at 10 μM amounted to 3 min in series [1] and 35 min in series [2]. Moreover, the IC50 – broadly, the concentration at which inhibition is half-maximal – in series [3] turned out to be 3.2 µM; in series [5], 7.9 µM. Besides, the EC50 (usually the midpoint of the concentration-response curve) in series [4] (+GSH) worked out at 4 µM; in series [4] (−GSH), 5.6 µM. Moreover, the “Emax (%) +GSH” value in series [4] (+GSH) was found to be 55%. In addition, in series [4] (−GSH), the “Emax (%) −GSH” value is reported as 151%.
Regarding `C=C(CC(=O)OC1Cc2cc(Cl)c(Cl)cc2C1)C(=O)OCC(=O)O` [Example 4, 2-((4-((5,6-dichloro-2,3-dihydro-1H-inden-2-yl)oxy)-2-methylene-4-oxobutanoyl)oxy)acetic acid], the “Clint (μL min^−1 10^−6 cells)” value in the series on mouse hepatocytes was found to be 83 μL min^−1 10^−6 cells; with human hepatocytes, 13 μL min^−1 10^−6 cells. The half-life at 10 μM came to 16 min in series [1] and 119 min in series [2]. Also, the figures for the IC50 in series [3] and in series [5] were 4.6 µM and 12 µM, respectively. Also, the EC50 in series [4] (+GSH) turned out to be 16.5 µM; in series [4] (−GSH), 7.5 µM. Besides, in series [4] (+GSH), the “Emax (%) +GSH” value was 182%. Further, the “Emax (%) −GSH” value in series [4] (−GSH) is 196%.
As for `C=C(CC(=O)OC1Cc2ccc(Cl)cc2C1)C(=O)OCC(=O)O` (centres unmarked) [Example 1, 2-((4-((5-chloro-2,3-dihydro-1H-inden-2-yl)oxy)-2-methylene-4-oxobutanoyl)oxy)acetic acid], the “Clint (μL min^−1 10^−6 cells)” value in the series with mouse hepatocytes amounted to 46 μL min^−1 10^−6 cells; in the series with human hepatocytes, 3 μL min^−1 10^−6 cells. Also, the results for the half-life at 10 μM in series [1] and in series [2] were 41 min and 449 min, respectively. Also, the IC50 was 10.2 µM in series [3] and 29.2 µM in series [5]. Moreover, the EC50 in series [4] (+GSH) is 34.6 µM; in series [4] (−GSH) it was 25.6 µM. The “Emax (%) +GSH” value in series [4] (+GSH) was 125%. Moreover, the “Emax (%) −GSH” value in series [4] (−GSH) is reported as 139%.
On to `C=C(CC(=O)OC1C(C)(C)c2cc(F)c(F)cc2C1(C)C)C(=O)OCC(=O)O` [Example 26, 2-((4-((5,6-difluoro-1,1,3,3-tetramethyl-2,3-dihydro-1H-inden-2-yl)oxy)-2-methylene-4-oxobutanoyl)oxy)acetic acid], for which the “Clint (μL min^−1 10^−6 cells)” value in the series on mouse hepatocytes is listed as greater than 460 μL min^−1 10^−6 cells; in the series with human hepatocytes, 9 μL min^−1 10^−6 cells. For the same compound, the half-life at 10 μM was less than 3 min in series [1] and 166 min in series [2]. The IC50 in series [3] was 3 µM; in series [5], 7.9 µM. The EC50 in series [4] (+GSH) was 7.7 µM; in series [4] (−GSH), 4.1 µM. Besides, the “Emax (%) +GSH” value in series [4] (+GSH) came out at 145%. Moreover, the “Emax (%) −GSH” value in series [4] (−GSH) was 216%.
For the compound `C=C(CC(=O)OC1CCc2cc(C(F)(F)F)ccc21)C(=O)OCC(=O)O` (single isomer, unassigned; enantiomer 1) [Example 27, 2-((2-methylene-4-oxo-4-((5-(trifluoromethyl)-2,3-dihydro-1H-inden-1-yl)oxy)butanoyl)oxy)acetic acid (Enantiomer 1)], the “Clint (μL min^−1 10^−6 cells)” value with mouse hepatocytes is recorded as 97 μL min^−1 10^−6 cells; in the series with human hepatocytes it was 9 μL min^−1 10^−6 cells. For the same compound, the half-life at 10 μM was 16 min in series [1] and 169 min in series [2]. The values for the IC50 in series [3] and in series [5] were 8.6 µM and 11.9 µM, respectively. In addition, the EC50 in series [4] (+GSH) was 35.1 µM and 37.5 µM; in series [4] (−GSH), 12.2 µM and 22.2 µM. Moreover, the “Emax (%) +GSH” value in series [4] (+GSH) is 139% and 136%. The “Emax (%) −GSH” value in series [4] (−GSH) was 157% and 201%.
